From publication PMC7672424 (Nucleic Acids Research, 2020)
One block for each compound: values may come before it.

Legend:
[1] = test system: FAM-TTA45-TAMRA (DNA, G4) GGGTTAGGGTTAGGGTTAGGGTTAGGGTTAGGGTTAGGGTTAGGG; assay: FRET melting; settings: 100 mM K+ (KCl) plus 10 mM potassium phosphate, pH 7.0, 0.5 µM DNA
TTA45 [2] = assay: FRET melting assay, stabilization of TTA45; type: binding, human; settings: for ΔTm/°C, TTA45 stabilization by FRET (Table S3) / ΔTm/°C, stabilization of TTA45 by FRET (Table S2): 0.5 µM TTA45, 10 mM K2HPO4/KH2PO4, 100 mM KCl, pH 7.0; for ΔTm/°C, TTA45 stabilization by FRET (Table S3): 20 µM compounds; for stabilization of TTA45 (in words, SAR): FRET assay
Procedure: Based on the conventional G-quadruplex ligand design ([46]), ∼400 compounds were selected from Chinese National Compound library of Peking University (PKU-CNCL). These compounds were evaluated for their ability to bind to TTA45 by Fluorescence Resonance Energy Transfer (FRET) assay (Supplementary Tables S1 and S2) ([47]). […] Compounds 21-38 were purchased to study their binding with TTA45 by FRET (Supplementary Table S3). […] page 4: Table S2. Stabilization of TTA45 as determined by FRET assays (continued). Compounds Structures ΔTm/°C Compounds Structures ΔTm/°C 23 10.3 25 14.6 […] OH 24 […] KCl, pH 7.0) was determined by FRET procedure, and Tm/°C were derived by their difference. The concentration of compounds 21-26 were 20 μM , and other compounds were 50 μM. FRET assay was carried out on the Real-Time PCR 3.2 machine (Analytik Jena, Germany). The total reaction volume was 20 μL with 0.5 μM of oligonucleotide labelled with FAM at the 3' end and TAMRA at 5' end in 10 mM K2HPO4/KH2PO4 (pH 7.0) containing 100 mM KCl. […] Then compounds with various concentrations were added into the DNA samples.

A549 = assay: Cell cytotoxicity assay (CCK8); type: cell-based, human; settings: CCK8, 48 h treatment
Procedure: (§1) The cell growth effect of BMPQ-1 against different cell lines were tested via measuring the quantity of living cells using the Cell Counting Kit-8 (CCK8) (DOJINDO, Japan) according to the instruction. Cells were seeded in a 96-well plate (5 × 10^3 cells/well) and grown for 24 h for attachment. Then the cells were treated with various concentrations of BMPQ-1 and incubated at 37°C with 5% CO2 for 48 h. After incubation, the old medium was discarded followed by adding fresh medium containing 10% FBS in DMEM. Then 100 μl CCK-8 (10% in grow medium) was added into each well, and the cells were further incubated for 1 h. The optical density (OD) was detected at 450 nm by an automated microplate reader (Bio-Rad). The IC50 values were derived from the curves of the mean percentage of survival against the drug concentration. All the experiments were performed in triplicate.
(§2) A Cell Counting Kit-8 (CCK8) (DOJINDO, Japan) was employed to evaluate the cytotoxicity of BMPQ-1 on human alveolar basal epithelial cancer cell line (A549), human hepatocellular carcinoma cancer cell line (HepG2), human gastric cancer cell line (MGC-803), human colon adenocarcinoma (HT29), human normal liver Cells (HL-7702).

HT29 = assay: Cell cytotoxicity assay (CCK8); type: cell-based, human; settings: CCK8, 48 h treatment
Procedure: as §1, §2

HepG2 = assay: Cell cytotoxicity assay (CCK8); type: cell-based, human; settings: CCK8, 48 h treatment
Procedure: as §1, §2

MGC-803 = assay: Cell cytotoxicity assay (CCK8); type: cell-based, human; settings: CCK8, 48 h treatment
Procedure: as §1, §2

[3] = test system: TTA (DNA, G4) GGGTTAGGGTTAGGGTTAGGG; assay: CD melting; settings: 50 mM K+; 10 mM Tris-HCl pH 7.4; 5 µM DNA, 20 µM compound
[4] = test system: TTA45 (DNA, G4) GGGTTAGGGTTAGGGTTAGGGTTAGGGTTAGGGTTAGGGTTAGGG; assay: CD melting; settings: 50 mM K+; 10 mM Tris-HCl pH 7.4; 5 µM DNA, 20 µM compound
TTA45 [5] = assay: CD melting, DNA stabilization; type: binding, human; settings: 5 µM DNA, 20 µM compound, 10 mM Tris-HCl, 50 mM KCl, pH 7.4
Description: Compounds Structures IC /µM m

TTA = settings: CD melting; 5 µM DNA, 20 µM compound; 10 mM Tris-HCl, 50 mM KCl, pH 7.4
Procedure: CD studies were performed on a Chirascan circular dichroism spectrophotometer (Jasco, Easton, MD, USA). A quartz cuvette with a 1 mm path length was used to record the spectra over a wavelength range of 220–320 nm with a 1 nm bandwidth. All the samples were prepared in buffer containing 10 mM Tris–HCl pH 7.4, 100 mM KCl. To ensure the concentrations of G-quadruplex units to be 20 μM, multiple G-quadruplexes forming oligonucleotides with different concentrations were used (TTA (G1) 20 μM, TTA45 (G2) 10 μM, TTA69 (G3) 6.67 μM, TTA93 (G4) 5 μM, TTA117 (G5) 4 μM, TTA141 (G6) 3.33 μM). The DNA samples were heated at 95°C for 5 min and cooled down slowly to room temperature. […] Melting curves were measured at 295 nm and the range of temperature was 4–95°C.
a Melting temperature (T ) of 5 µM DNA samples with and without 20 µM BMPQ-1 analogs in 10 mM Tris-HCl
buffer (50 mM KCl, pH 7.4) was determined by circular dichroism spectroscopy, and ΔTm/°C were derived by

[6] = test system: TTA45 (DNA, G4) GGGTTAGGGTTAGGGTTAGGGTTAGGGTTAGGGTTAGGGTTAGGG; assay: CD melting; settings: 50 mM K+ (KCl); 10 mM Tris-HCl pH 7.4; 20 µM compound, 5 µM DNA
[7] = test system: TTA (DNA, G4) GGGTTAGGGTTAGGGTTAGGG; assay: CD melting; settings: 50 mM K+ (KCl); 10 mM Tris-HCl pH 7.4; 20 µM compound, 5 µM DNA
[8] = test system: FAM-TTA45-TAMRA (DNA, G4) GGGTTAGGGTTAGGGTTAGGGTTAGGGTTAGGGTTAGGGTTAGGG; assay: FRET melting; settings: 100 mM K+ (KCl) plus potassium phosphate; 10 mM K2HPO4/KH2PO4 pH 7.0; 0.5 µM DNA, 20 µM compound

Compound: Clc1ccc(-n2cc3c(-c4ccccc4)nnc-3c3ccccc32)cc1
- ΔTm ([1]; 20 µM compound): 2.54 ± 0.16 °C

Compound: Cc1ccc(Cn2cc(C(=O)c3ccc4c(c3)OCO4)c(=O)c3cc4c(cc32)OCO4)cc1 [Compound 15]
- ΔTm/°C, stabilization of TTA45 by FRET (Table S2) (TTA45 [2]; compounds 50 µM): 0.70 °C

Compound: COc1ccc2c(c1)c1nnc(-c3ccc(F)cc3)c-1cn2Cc1ccccc1
- ΔTm ([1]; 20 µM compound): 8.38 ± 1.73 °C

Compound: CN(Cc1ccc2c(c1)OCO2)C(=O)c1nn(C)c2c1CN(C(=O)C1=NOC(c3cccs3)C1)CC2 (centres unmarked)
- ΔTm ([1]; 50 µM compound): 0.70 °C

Compound: C(=N\Nc1nnc2c(n1)[nH]c1ccccc12)/c1c2ccccc2cc2ccccc12
- ΔTm ([1]; 50 µM compound): 1.54 °C

Compound: CN(C)c1ccc(Nc2c3ccc(NC(=O)CCN4CCCC4)cc3nc3cc(NC(=O)CCN4CCCC4)ccc23)cc1 [BRACO-19, reference compound]
- IC50 (A549): 6.71 ± 0.45 µM
- IC50 (HT29): 14.2 ± 1.78 µM
- IC50 (HepG2): 6.25 ± 0.8 µM
- IC50 (MGC-803): 7.07 ± 0.89 µM

Compound: COc1ccc(-c2nnc3c4cc5c(cc4n(Cc4ccccc4)cc2-3)OCO5)cc1 [BMPQ-6]
- ΔTm [3]: 1.0 °C
- ΔTm [4]: 3.5 °C
- ΔTm/°C, TTA45 stabilization by FRET (Table S3) (TTA45 [2]): 11.68 ± 0.53 °C
- ΔTm/°C, stabilization of TTA45 by FRET (Table S2) (TTA45 [2]; compounds 21-26 20 µM): 11.7 °C
- ΔTm (°C) TTA45 (TTA45 [5]): 3.5 °C
- IC50 (A549): 2.49 ± 0.03 µM
- ΔTm ([1]; 20 µM compound): 11.68 ± 0.53 °C
- ΔTm (°C) TTA (TTA): 1.0 °C

Compound: OCCn1cc2c(-c3ccc4c(c3)OCO4)nnc-2c2cc3c(cc21)OCO3 [BMPQ-4]
- ΔTm [6]: 4.9 °C
- ΔTm [7]: 2.3 °C
- ΔTm/°C, TTA45 stabilization by FRET (Table S3) (TTA45 [2]): 7.92 ± 0.12 °C
- ΔTm/°C, stabilization of TTA45 by FRET (Table S2) (TTA45 [2]; compounds 21-26 20 µM): 7.9 °C
- ΔTm (°C) TTA45 (TTA45 [5]): 4.9 °C
- IC50 (A549): > 32 µM
- ΔTm ([1]; 20 µM compound): 7.92 ± 0.12 °C
- ΔTm (°C) TTA (TTA): 2.3 °C

Compound: COc1ccc(-c2nnc3c4cc5c(cc4n(Cc4ccccc4)cc2-3)OCCO5)cc1OC [BMPQ-5]
- ΔTm [6]: 4.6 °C
- ΔTm [7]: 4.3 °C
- ΔTm/°C, TTA45 stabilization by FRET (Table S3) (TTA45 [2]): 14.62 ± 0.46 °C
- ΔTm/°C, stabilization of TTA45 by FRET (Table S2) (TTA45 [2]; compounds 21-26 20 µM): 14.6 °C
- ΔTm (°C) TTA45 (TTA45 [5]): 4.6 °C
- IC50 (A549): 5.39 ± 0.46 µM
- ΔTm [8]: 14.62 ± 0.46 °C
- ΔTm (°C) TTA (TTA): 4.3 °C

Compound: Oc1ccccc1C=NNc1nnc2c3ccccc3n(Cc3ccccc3)c2n1 [Compound 5]
- ΔTm/°C, stabilization of TTA45 by FRET (Table S2) (TTA45 [2]; compounds 50 µM): 1.53 °C

Compound: COc1ccc(-c2nn(-c3ccc(F)cc3)c3c2cnc2cc4c(cc23)OCO4)cc1 [Compound 37]
- ΔTm/°C, TTA45 stabilization by FRET (Table S3) (TTA45 [2]): 2.19 ± 0.91 °C
- stabilization of TTA45 (in words, SAR) (TTA45 [2]): negligible stabilization

Compound: FC(F)(F)c1ccc(Cn2cc3c(-c4ccc5c(c4)OCO5)nnc-3c3cc4c(cc32)OCO4)cc1 [BMPQ-2]
- ΔTm [3]: 2.3 °C
- ΔTm [4]: 7.0 °C
- ΔTm/°C, TTA45 stabilization by FRET (Table S3) (TTA45 [2]): 12.59 ± 0.54 °C
- ΔTm/°C, stabilization of TTA45 by FRET (Table S2) (TTA45 [2]; compounds 21-26 20 µM): 12.6 °C
- ΔTm (°C) TTA45 (TTA45 [5]): 7.0 °C
- IC50 (A549): 1.99 ± 0.04 µM
- ΔTm ([1]; 20 µM compound): 12.59 ± 0.54 °C
- ΔTm (°C) TTA (TTA): 2.3 °C

Compound: CCOc1ccc(-c2nnc3c4cc5c(cc4[nH]cc2-3)OCCO5)cc1 [Compound 34]
- ΔTm/°C, TTA45 stabilization by FRET (Table S3) (TTA45 [2]): 3.55 ± 1.20 °C

Compound: Fc1ccc(-n2nc(-c3ccccc3)c3cnc4cc5c(cc4c32)OCO5)cc1 [Compound 38]
- ΔTm/°C, TTA45 stabilization by FRET (Table S3) (TTA45 [2]): 0.30 ± 0.82 °C
- stabilization of TTA45 (in words, SAR) (TTA45 [2]): negligible stabilization

Compound: Cc1ccc(Cn2cc3c(-c4ccc5c(c4)OCO5)nnc-3c3ccccc32)cc1 [BMPQ-3]
- ΔTm [6]: 5.1 °C
- ΔTm [7]: 1.1 °C
- ΔTm/°C, TTA45 stabilization by FRET (Table S3) (TTA45 [2]): 10.28 ± 0.15 °C
- ΔTm/°C, stabilization of TTA45 by FRET (Table S2) (TTA45 [2]; compounds 21-26 20 µM): 10.3 °C
- ΔTm (°C) TTA45 (TTA45 [5]): 5.1 °C
- IC50 (A549): > 32 µM
- ΔTm ([1]; 20 µM compound): 10.28 ± 0.15 °C
- ΔTm (°C) TTA (TTA): 1.1 °C

Continued, in another order:

- ΔTm ([1]; 20 µM compound): 14.08 ± 2.11 °C
Compound: Cc1ccc(-c2nnc3c4cc5c(cc4n(Cc4ccccc4)cc2-3)OCO5)cc1C [Compound 27]
- ΔTm/°C, TTA45 stabilization by FRET (Table S3) (TTA45 [2]): 14.08 ± 2.11 °C

- ΔTm ([1]; 50 µM compound): 9.04 °C
Compound: CN1CCN(CCCSc2nnc3c(n2)[nH]c2ccccc23)CC1 [Compound 3]
- ΔTm/°C, stabilization of TTA45 by FRET (Table S2) (TTA45 [2]; compounds 50 µM): 9.04 °C

- ΔTm ([1]; 20 µM compound): 10.42 ± 1.60 °C
Compound: Fc1ccc(-c2nnc3c4cc5c(cc4n(Cc4ccccc4F)cc2-3)OCCO5)cc1 [Compound 33]
- ΔTm/°C, TTA45 stabilization by FRET (Table S3) (TTA45 [2]): 10.42 ± 1.60 °C

- ΔTm ([1]; 50 µM compound): 3.85 °C
Compound: COc1cc2c(-c3ccccc3[N+](=O)[O-])nc3c(c(-c4ccccc4)nn3-c3ccccc3)c2cc1OC

- ΔTm ([1]; 20 µM compound): 6.43 ± 0.70 °C
Compound: Cc1ccc2c(c1)c1nnc(-c3ccc(F)cc3)c-1cn2Cc1ccccc1

- ΔTm ([1]; 50 µM compound): 1.12 °C
Compound: CCCNC(=O)Cn1nc(-c2ccc(CC)cc2)c2cnc3cc4c(cc3c21)OCCO4

- ΔTm ([1]; 50 µM compound): 5.11 °C
Compound: CCC(Sc1nc2cc3c(cc2c(=O)n1Cc1ccc(C(=O)NCc2ccc4c(c2)OCO4)cc1)OCO3)C(=O)N1CCOCC1 (centres unmarked) [Compound 12]
- ΔTm/°C, stabilization of TTA45 by FRET (Table S2) (TTA45 [2]; compounds 50 µM): 5.11 °C

- ΔTm ([1]; 20 µM compound): 11.56 ± 0.36 °C
Compound: c1cc2c(cc1Cn1cc3c(-c4ccc5c(c4)OCO5)nnc-3c3cc4c(cc31)OCO4)OCO2

- ΔTm ([1]; 50 µM compound): 2.17 °C
Compound: Cc1cc(C)n(-c2nnc3c4ccccc4n(CC(=O)NCCc4nc5ccccc5[nH]4)c3n2)n1

- ΔTm ([1]; 20 µM compound): 15.15 ± 0.23 °C
Compound: COc1ccc(Cn2cc3c(-c4ccc5c(c4)OCO5)nnc-3c3cc4c(cc32)OCO4)cc1OC [Compound 31]
- ΔTm/°C, TTA45 stabilization by FRET (Table S3) (TTA45 [2]): 15.15 ± 0.23 °C

- ΔTm ([1]; 20 µM compound): 13.40 ± 1.12 °C
Compound: COc1cccc(Cn2cc3c(-c4ccc5c(c4)OCO5)nnc-3c3cc4c(cc32)OCO4)c1 [Compound 30]
- ΔTm/°C, TTA45 stabilization by FRET (Table S3) (TTA45 [2]): 13.40 ± 1.12 °C

- ΔTm ([1]; 20 µM compound): 0.98 ± 0.69 °C
Compound: CCOc1ccc2c(c1)c1nnc(-c3ccccc3)c-1cn2-c1ccc(Cl)cc1

- ΔTm ([1]; 50 µM compound): 1.53 °C
Compound: Oc1ccccc1/C=N/Nc1nnc2c3ccccc3n(Cc3ccccc3)c2n1
